# According to article PMC12356476, “Transferrin conjugated pH/NIR-responsive black phosphorus nanoplatform: A novel multimodal approach for breast cancer theranostics” (International Journal of Pharmaceutics: X, 2025):
# Key:
# [1] = tested on: 4 T1-breast tumour bearing BALB/c mice; test: Pharmacodynamic study (antitumour efficacy); assay type: in vivo; details: i.v., 5 mg/kg eq. to DOX, 14 days
# Experimental: Female BALB/c mice were given a subcutaneous injection of 4 T1 cells (1.5 × 10^6 cells) in 100 μL of cold PBS, into the dorsal flank. The breast tumour appeared in 10–14 days while the mice were under close observation. Using a vernier caliper, the length and width were measured, and the tumour volume was measured. When the tumour volume reached about 75 to 100 mm^3, the mice were grouped randomly to 10 groups (n = 3):
# Group I: Saline (i v injection).
# Group II: Saline + NIR (i v injection).
# Group III: BPNSs (Dose: 5 mg/Kg) (i v injection).
# Group IV: BPNSs + NIR (Dose: 5 mg/Kg) (i v injection).
# After 2 h of injection, the laser irradiation groups were exposed to 808 nm NIR laser (1 W/cm^2) for 5 min. The starting day of the treatment was considered as 0th day and checked for body weight in every day and tumour volume in every 2 days. The following equation was used for the measurement of tumour volume (V): Volumemm^3=Width^2XLength/2
# (§1) On the last day of the treatment (Day 14), the BALB/c mice were euthanized by cervical dislocation and major organs were collected, washed and fixed with 4 % paraformaldehyde for Hematoxylin and Eosin (H&E) staining.
# 4 T1 cells [2] = test: In vitro PTT study (MTT with 808 nm NIR irradiation); assay type: cell-based, murine; details: 4 T1 tumour cellular toxicity after 48 h; 808 nm laser 1.0 W/cm^2 for 10 min
# Experimental: Based on the results of cytotoxicity in 4 T1 cells produced by the test compounds, five concentrations were selected (100, 10, 1, 0.1, 0.001) to evaluate the extent of cytotoxicity in the presence of NIR radiation of 808 nm. 4 T1 cell line was seeded and incubated for 24 h. After refreshing the medium, the wells were added with samples at 37 °C for 4 h, and irradiated with 808 nm laser (1.0 W/cm^2) for 10 mins incubated till 48 h ([Phan et al., 2017]; [Xu et al., 2021]).
# Absorbance data were observed, and percentage tumour cell growth inhibition was measured using the following formula: Percentage growth inhibition=Absorbance of Blank−Absorbance of test/Absorbance of BlankX100
# [3] = tested on: 4T1 tumour bearing BALB/c mice; test: Blood (haematological) parameters estimation; assay type: in vivo
# Experimental: A total of about 100 μL of blood was collected from the retroorbital route and collected into a tube with 10 μL of EDTA for a complete blood count such as RBC, WBC, platelets and hemoglobin analysis using Nihon Kohden blood analyzer (celltac alpha-MEK-6550, India).
# [4] = tested on: 4 T1-breast tumour bearing BALB/c mice; test: Biodistribution study by in vivo fluorescence imaging; details: i.v., imaging 0.5 to 36 h post-injection
# From the text: In vivo biodistribution study of plain DOX, and BP-DOX@PDA-TF were monitored with an in vivo imaging system. […] Using IVIS® containing 620 nm and 780 nm filters respectively for excitation and emission, tumour accumulation trends were examined across various time periods following injection.
# 4 T1 cells [5] = test: Cellular uptake by flow cytometry; assay type: cell-based, murine; details: ~5 μg/mL, no irradiation
# Experimental: To understand the cellular uptake of nanoformulations, flow cytometry was employed. 4 T1 cells were seeded into 6-well plates and allowed to adhere for 24 h prior to treatment. […] Followed by the removal of culture medium after 2 h of treatment, test samples were added, and the laser groups were exposed to NIR-II 808 nm laser for 5 min and kept in incubator for 2 h. The plates were taken and added with trypsin for the detachment of 4 T1 cells. It was then collected, centrifuged to separate free DOX and BP-based nanoformulation, and analyzed using a flow cytometer (BD Accuri). Untreated 4 T1 cells were used as a control group.
# 4 T1 cells [6] = test: MTT cytotoxicity assay without irradiation; assay type: cell-based, murine; details: 4 T1 tumour cellular toxicity after 48 h
# Experimental: The 4 T1 cell line, a murine breast tumour cell line derived from BALB/cf3H mice, was obtained from Elabsciences, Inc. The cytotoxicity of BP-based nanoformulation were evaluated using MTT assay. […] After 48 h, media was discarded and added with 50 μL of MTT reagent (2 mg/ml). The samples were then kept for 4 h of incubation and added with 50 μL DMSO to solubilize the formazan crystals. OD (optical density) was evaluated at 540 nm in a microplate reader (ELx800). Absorbance data were observed, and percentage tumour cell growth inhibition was measured using the following formula: Percentage growth inhibition=Absorbance of Blank−Absorbance of test/Absorbance of BlankX100
# [7] = tested on: chorioallantoic membrane (CAM) of fertilized chicken eggs; test: Chorioallantoic membrane (CAM) assay; assay type: in vivo; details: 200 μL applied on day 8, observed at 8 and 24 h; DOX equivalent 200 μg
# Experimental: The CAM assay is a method used to assess the effects of chemical agents/formulations on the developing, highly vascularized CAM. Fertilized chicken eggs were obtained, disinfected with 70 % ethanol, and incubated in a humidified environment. The eggs were kept horizontal and regularly rotated. […] Lenalidomide was considered as positive and normal saline (NS) as negative control. Following application, the egg's cavity was resealed with scotch tape and returned to the incubator. Changes in the blood vessel morphology were examined at 8 and 24 h after incubation ([Raychaudhuri et al., 2021]).
# [8] = In vivo pharmacokinetics after i.v. injection; details: 5 mg/kg DOX equivalent, BALB/c mice, plasma, Mean ± SD, n = 3
# Experimental: Female BALB/c mice (6–8 weeks old, 18–25 g) were obtained from a certified animal supplier and used for the study. Prior to the start of the experiment, all animals were housed under standard laboratory conditions (12-h light/dark cycle, temperature 22 ± 2 °C, relative humidity 50–60 %) with ad libitum access to food and water. A two-week acclimatization period was provided to allow the animals to adjust to the laboratory environment. […] Mice were randomly assigned to experimental groups (n = 3 per group), and all efforts were made to minimize suffering. The allocation and data collection were conducted in a blinded manner wherever applicable. No animals were excluded from the analysis unless stated otherwise.
# Blood sample was collected in EDTA solution containing tubes at intervals ranging from 5 min to 48 h post-administration and then centrifuged to separate the plasma ([Zeng et al., 2019]).
# [9] = tested on: 4 T1-breast tumour bearing BALB/c mice; test: Histopathological analysis (H&E) of tumour tissues and other organs; assay type: in vivo; design: key to Tumour cells / Necrosed area / Malignant features like nuclear pleomorphism, hyperchromatism / inflammation / Muscle invasion: -: Nil; + few; ++ Many; +++ Abundant; details: for Malignant features like nuclear pleomorphism, hyperchromatism / Mitotic count/10HPF / Muscle invasion / Necrosed area / Tumour cells / inflammation: tumour tissue, 14 days
# Experimental: as §1
# Three BALB/c mice from each group were sacrificed after 14 days of treatment. The tissues (liver, spleen, lung, heart, kidney, and breast tumour) were isolated and fixed with 10 % formalin for 24 to 48 h. The tissue slides were examined using the LX-500 LED trinocular Research microscope, and pictures were captured using the MiaCam CMOS AR 6pro microscope camera coupled to image AR pro software. The slides were graded according to tumour cells, necrosed areas, malignant features like nuclear pleomorphism and hyperchromatism, inflammation, muscle invasion and mitotic count counted in 10 consecutive high-power fields (HPFs).
# [10] = after 14 days of treatment and NIR Irradiation
# [11] = after 14 days of treatment, no NIR irradiation
smiles,measurement,setting,value
"COc1cccc2c1C(=O)c1c(O)c3c(c(O)c1C2=O)C[C@@](O)(C(=O)CO)C[C@@H]3O[C@H]1C[C@H](N)[C@H](O)[C@H](C)O1 [DOX, Doxorubicin]",breast tumour growth suppression,[1],failed to efficiently suppress the breast tumour growth
same,"IC50 value, NIR Irradiated",4 T1 cells [2],1.58 µg/mL
same,HCT,[3]; [10],46.76±4.31%
same,HGB,[3]; [10],13.88 ± 1.28 g/dL
same,MCH,[3]; [10],16.35 ± 1.51 pg
same,MCV,[3]; [10],50.93 ± 3.10 fL
same,MPV,[3]; [10],6.39 ± 0.59 fL
same,PDW,[3]; [10],14.34 ± 1.32 fL
same,PLT,[3]; [10],924.2±85.27 ×10^3/µL
same,RBC,[3]; [10],7.8±1.31 ×10^6/µL
same,RDW‐CV,[3]; [10],13.61±1.26%
same,RDW‐SD,[3]; [10],35.71 ± 3.29 fL
same,WBC,[3]; [10],8.77±0.81 10^3/µL
same,HCT,[3]; [11],42.69±4.36%
same,HGB,[3]; [11],14.57 ± 0.42 g/dL
same,MCH,[3]; [11],16.27 ± 1.64 pg
same,MCV,[3]; [11],52.77 ± 4.81 fL
same,MPV,[3]; [11],6.37 ± 1.21 fL
same,PDW,[3]; [11],14.77 ± 2.06 fL
same,PLT,[3]; [11],940±75.19 ×10^3/µL
same,RBC,[3]; [11],9.39±1.2 ×10^6/µL
same,RDW‐CV,[3]; [11],13.77±0.38%
same,RDW‐SD,[3]; [11],38.17 ± 3.09 fL
same,WBC,[3]; [11],9.73±1.5 10^3/µL
same,fluorescence signal of DOX at the tumour region,[4],significantly reduced signal
same,cellular uptake (DOX fluorescence intensity),4 T1 cells [5],greater fluorescence intensity than BP-based NPs
same,"IC50 value, Non NIR Irradiated",4 T1 cells [6],2.84 µg/mL
same,"toxicity to the CAM (coagulation, hemorrhage, vascular morphology, embryotoxicity)",[7],"notable sign of toxicity such as coagulation, bleeding, and embryo toxicity"
same,AUC(0-t),[8],2976.15 ± 1191.277 ng·h/mL
same,AUC(0-∞),[8],3168.98 ± 1086.246 ng·h/mL
same,Cmax,[8],469.73 ± 93.78 ng/mL
same,Ke,[8],0.141 ± 0.05 h⁻¹
same,T max,[8],4.98 ± 0 min
same,t1/2,[8],5.47 ± 2.15 h
same,liver pathology,"[9]; H&E, 14 days of treatment",severe hypertrophy and liver congestion
same,"Malignant features like nuclear pleomorphism, hyperchromatism",[9]; NIR irradiated,+++
same,Mitotic count/10HPF,[9]; NIR irradiated,23 /10HPF
same,Muscle invasion,[9]; NIR irradiated,-
same,Necrosed area,[9]; NIR irradiated,+++
same,Tumour cells,[9]; NIR irradiated,+++
same,inflammation,[9]; NIR irradiated,-
same,"Malignant features like nuclear pleomorphism, hyperchromatism",[9]; NIR non-irradiated,++
same,Mitotic count/10HPF,[9]; NIR non-irradiated,4 /10HPF
same,Muscle invasion,[9]; NIR non-irradiated,-
same,Necrosed area,[9]; NIR non-irradiated,-
same,Tumour cells,[9]; NIR non-irradiated,+
same,inflammation,[9]; NIR non-irradiated,+++
